Consider one compound from patent US20240335548A1, “MACROMOLECULES” (Starpharma Pty Ltd, priority 2011, published 2024).

One series has as its system A2058 (Melanoma). As to the kind of experiment: Cell growth inhibition SRB assay. The series is classed as cell-based. As to conditions: Homo sapiens; A2058; 72 hours; equivalent drug loading; average of duplicate. On the procedure:
(§1) All solutions were prepared in saline (except docetaxel which was made in ethanol). All solutions were stored at −20° C. All values were based on the equivalent drug loading.
(In SRB staining, fixed cells bind dye roughly in proportion to their protein.)

The next series concerns A549 (Lung). As to the kind of experiment: Cell growth inhibition SRB assay. As to conditions: Homo sapiens; A549; 72 hours; equivalent drug loading; average of duplicate. The series is classed as cell-based. On the procedure: as §1
The subject of a further series is DU145 (Prostate). As to the kind of experiment: Cell growth inhibition SRB assay. In kind it is cell-based. As to conditions: Homo sapiens, DU-145; DU145; 72 hours; equivalent drug loading; average of duplicate. On the procedure:
as §1

Another series has as its system ES2 (Ovarian). As to the kind of experiment: Cell growth inhibition SRB assay. The series is classed as cell-based. As to conditions: ES2; 72 hours; equivalent drug loading; average of duplicate. On the procedure: as §1
Another series concerns H460 (Lung). As to the kind of experiment: Cell growth inhibition SRB assay. The series is classed as cell-based. The following applies: Homo sapiens, NCI-H460; H460; 72 hours; equivalent drug loading; average of duplicate. On the procedure:
as §1

A further series relates to HCT116 (Colon). As to the kind of experiment: Cell growth inhibition SRB assay. The following applies: Homo sapiens, HCT-116; HCT116; 72 hours; equivalent drug loading; average of duplicate. In kind it is cell-based. On the procedure:
as §1

The next series relates to HT29 (Colon). As to the kind of experiment: Cell growth inhibition SRB assay. In kind it is cell-based. The following applies: Homo sapiens, HT-29; HT29; 72 hours; equivalent drug loading; average of duplicate. On the procedure:
as §1

Another series relates to MCAS (Ovarian). As to the kind of experiment: Cell growth inhibition SRB assay. The following applies: MCAS; 72 hours; equivalent drug loading; average of duplicate. In kind it is cell-based. On the procedure: as §1
In the next series the test system is MDA-MB-231 (Breast). As to the kind of experiment: Cell growth inhibition SRB assay. In kind it is cell-based. The following applies: Homo sapiens; MDA-MB-231; 72 hours; equivalent drug loading; average of duplicate. On the procedure:
as §1

The next series deals with PC-3 (Prostate). As to the kind of experiment: Cell growth inhibition SRB assay. In kind it is cell-based. As to conditions: PC-3; 72 hours; equivalent drug loading; average of duplicate. On the procedure: as §1
Series [1] can be described thus: Maximum tolerated dose (MTD) study. The series is classed as in vivo, female Balb/c mice. As to conditions: intravenous once weekly for 3 weeks (day 1, 8 and 15). On the procedure: Groups of female Balb/c mice were administered an intravenous injection of dendrimer (0.1 ml/10 g body weight) or docetaxel (0.05 ml/10 g body weight) once weekly for 3 weeks (day 1, 8 and 15). Mice were weighed daily and watched for signs of toxicity. Animals were monitored for up to 10 days following the final drug dose. Any mice exceeding ethical endpoints (≥20% body weight loss, poor general health) were immediately sacrificed and observations were noted. […] More than twice the dose of docetaxel could be safely administered using drug dendrimer construct compared to docetaxel alone.

Another series relates to MDA-MB-231 tumours. As to the kind of experiment: Xenograft MDA-MB-231 efficacy study. In kind it is in vivo, female Balb/c nude mice.
The conditions of series [2]: day 16, one day after final dose. On the procedure: The 20 mice were randomised into 5 groups of four mice (mean tumour volume ˜90 mm^3). Animals were eye bled in the morning for baseline blood cell counts and then drug dosing commenced later that day (day 1). […] A second eye bleed was performed on day 11 (Table 7 A-C). Mice were killed one day following the final drug dose (day 16).

For series [3] the following is noted: free drug, footnote of Table 1; cited from earlier work.
A short description of series [4]: Pharmacokinetic analysis, plasma half-life after IV administration. The following applies: rat, plasma, iv.
Procedure: The plasma half-lives of tritium labelled docetaxel and the construct from Experiment 8 (c) (prepared using tritium labelled docetaxel) after IV administration into rats were determined (Kaminskas, L. M., Boyd, B. J., Karellas, P., Krippner, G. Y., Lessene, R., Kelly, B and Porter, C. J. H. “The Impact of Molecular Weight and PEG Chain Length on the Systemic Pharmacokinetics of PEGylated Poly-L-Lysine Dendrimers” Molecular Pharm. 2008, 5, 449-463).

`CC(=O)O[C@@]12CO[C@@H]1C[C@H](O)[C@@]1(C)C(=O)[C@H](O)C3=C(C)[C@@H](OC(=O)[C@H](O)[C@@H](NC(=O)OC(C)(C)C)c4ccccc4)C[C@@](O)([C@@H](OC(=O)c4ccccc4)[C@H]21)C3(C)C` [Docetaxel, reference compound]: the GI50 in the series on A2058 (Melanoma) stood at 2 nM; in the series on A549 (Lung) it was 3.5 nM; in the series with DU145 (Prostate), 2.5 nM; with ES2 (Ovarian), 5 nM; in the series with H460 (Lung), 1.5 nM; in the series on HCT116 (Colon) it was 0.7 nM. Also, the GI50 in the series with HT29 (Colon) amounted to 1.5 nM; in the series with MCAS (Ovarian), 7 nM; in the series with MDA-MB-231 (Breast), 3.5 nM; in the series on PC-3 (Prostate) it was 2.5 nM. The Tolerated dose in series [1] is reported as 15 mg/kg docetaxel equivalents. The “Mean tumour Volumne mm^3 (sd)” value with MDA-MB-231 tumours (Day 1, i.v. day 1, 8, 15, docetaxel 15 mg/kg, Exp 3 (b) 20 mg/kg, Exp 8 (c) […] mg/kg) is listed as 111.94 (6.41), mm^3; in the series on MDA-MB-231 tumours (Day 9, same doses) it was 135.57 (18.85), mm^3; in the series on MDA-MB-231 tumours (Day 19, same doses), 49.92 (11.61), mm^3; in the series with MDA-MB-231 tumours (Day 29, same doses), 18.81 (2.09), mm^3; with MDA-MB-231 tumours (Day 40, same doses), 10.75 (1.95), mm^3; with MDA-MB-231 tumours (Day 61, same doses), 95.94 (33.08), mm^3. Moreover, the “Mean tumour Volumne mm^3 (sd)” value in the series on MDA-MB-231 tumours (Day 81, same doses) is 478.67 (169.27), mm^3; with MDA-MB-231 tumours (Day 100, same doses) it was 974.83 (302.59), mm^3. The “Mean Tumour Weights (g) (sd)” value in series [2] is reported as 0.048 g. For the same compound, the “solubility of the drug in water” value in [3] is “The solubility of docetaxel and in water is 5 μg/mL”. In addition, in [4], the half-life is less than 1 h.

For orientation: GI50 means the concentration that inhibits growth by half. As usually defined, the half-life is how long it takes for the measured level to halve. A low value points to fast loss.
